Laboratory results from patent US11339151B2, “Aliphatic acid amide derivative” (Sumitomo Dainippon Pharma Co., Ltd., priority 2019, dated 2022).

Tests used:
human 5-HT2A receptor [1] = molecular target: T1, human 5-HT2A receptor (Homo sapiens (Human), UniProt P28223); experiment: Test 1: binding activity for human 5-HT2A receptor ([3H]Ketanserin, CHO cell membrane fraction); details: room temperature 60 minutes
Protocol: (§1) Ki value was evaluated from dissociation constant which was calculated from saturated binding tests, and a substrate concentration, and it was used as an index for binding affinity.

[2] = Test 9: intracerebral transferability in rats; format: in vivo; details: brain and plasma (unbound); SD or WKY rat, subcutaneous or oral, 0.5, 1 or 2 hours; unbound brain/plasma ratio
Protocol: In this test, intracerebral transferability of the present compound was evaluated by the following method. The present compounds were subcutaneously administered as a solution in saline, or orally administered as a suspension in methyl cellulose to a 7-week-old SD or WKY rat. Plasma and brain were collected on 0.5 hour, 1 hour, or 2 hours after the administration in order to measure the drug concentrations in plasma and brain by LC-MS.
Binding rates of the present compound to plasma and brain protein were measured by equilibrium dialysis method.
Kp,uu,brain (unbound drug concentration ratio between brain/plasma) can be calculated by applying the compound concentrations in plasma and brain and the binding rates to plasma and brain protein obtained from the above test into the following formula. Kp,uu,brain=(Compound concentration in brain×(100−Binding rate to brain protein (%))/100)/(Compound concentration in plasma×(100−Binding rate to plasma protein (%))/100)

hERG channel = hERG channel (Homo sapiens (Human), UniProt Q12809); experiment: Test 5: inhibitory activity for hERG channel (whole cell patch clamp, hERG-CHO cells); format: cell-based; details: for IC50: hERG-CHO cells, auto patch clamp; for hERG inhibitory IC50 (nmol/L)/5-HT2A Ki (nmol/L) / hERG inhibitory IC50 (nmol/L)/5-HT7 Ki (nmol/L): ratio
Chain of hERG channel (Q12809 whole entry): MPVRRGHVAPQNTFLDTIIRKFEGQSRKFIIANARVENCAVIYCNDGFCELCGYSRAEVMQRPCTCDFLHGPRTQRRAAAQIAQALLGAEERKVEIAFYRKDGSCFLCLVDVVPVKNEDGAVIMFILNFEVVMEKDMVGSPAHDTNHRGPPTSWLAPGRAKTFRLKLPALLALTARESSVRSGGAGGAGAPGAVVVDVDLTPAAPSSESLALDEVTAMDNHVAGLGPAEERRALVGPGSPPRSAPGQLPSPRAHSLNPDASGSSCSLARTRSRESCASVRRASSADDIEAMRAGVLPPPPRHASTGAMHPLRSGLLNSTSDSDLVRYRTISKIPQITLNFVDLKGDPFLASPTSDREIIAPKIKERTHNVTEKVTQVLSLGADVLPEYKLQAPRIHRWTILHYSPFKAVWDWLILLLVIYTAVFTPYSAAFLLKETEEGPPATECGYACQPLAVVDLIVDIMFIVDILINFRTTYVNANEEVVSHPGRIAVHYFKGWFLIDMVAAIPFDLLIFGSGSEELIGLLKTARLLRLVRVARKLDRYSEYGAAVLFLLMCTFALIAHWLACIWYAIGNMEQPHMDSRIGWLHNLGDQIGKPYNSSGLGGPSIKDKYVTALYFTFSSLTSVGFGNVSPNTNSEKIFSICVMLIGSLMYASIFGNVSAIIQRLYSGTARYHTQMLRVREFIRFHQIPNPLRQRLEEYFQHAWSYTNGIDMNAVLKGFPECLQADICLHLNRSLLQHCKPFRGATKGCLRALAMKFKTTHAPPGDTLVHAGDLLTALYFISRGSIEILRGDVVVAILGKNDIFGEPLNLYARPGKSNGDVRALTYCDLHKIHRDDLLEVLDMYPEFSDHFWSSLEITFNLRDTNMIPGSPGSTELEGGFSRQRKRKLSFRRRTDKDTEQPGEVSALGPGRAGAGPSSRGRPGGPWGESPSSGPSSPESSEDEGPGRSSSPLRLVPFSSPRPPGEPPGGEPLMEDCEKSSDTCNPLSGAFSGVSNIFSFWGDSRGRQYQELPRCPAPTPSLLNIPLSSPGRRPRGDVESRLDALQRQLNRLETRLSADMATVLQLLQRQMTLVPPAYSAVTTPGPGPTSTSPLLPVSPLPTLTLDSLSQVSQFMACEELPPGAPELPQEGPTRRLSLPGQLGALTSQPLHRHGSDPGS
Protocol: Test 5: Evaluation of Inhibitory Activity for hERG Channel
Inhibitory activity of the present compound for hERG channel was measured by whole cell patch clamp method with an auto patch clamp system using CHO cells in which hERG channel involved in human rapidly activating delayed rectifier potassium current (IKr) was forcibly expressed.
hERG-CHO cells purchased from ChanTest Cop. were cultured in a CO2 incubator at 37° C., and dissociated from a flask with trypsin shortly before the measurement of hERG current to prepare a cell suspension.
The cell suspension, the extracellular fluid, the intracellular fluid, and the measurement plate were set in an auto patch clamp system, and hERG current was measured by whole cell patch clamp method. […] Each pulse interval was 15 seconds. The data analysis was carried out with Qube Assay Software (Sophion Sophion). The test was carried out by applying incrementally 4 concentrations of each test compound, and the average of the maximum peak tail currents which were obtained from the last 3 stimulations in each concentration was determined as the evaluated data.

human 5-HT2A receptor [3] = molecular target: T1, human 5-HT2A receptor; experiment: Test 2: antagonist activity for human 5-HT2A receptor (aequorin luminescence, CHO-K1 cells); format: cell-based; details: Gα16
Protocol: Test 2: Evaluation of Antagonist Activity for Human 5-HT2A Receptor and Human 5-HT7 Receptor
Aequorin, Gα 16 protein, and each receptor were transiently expressed in CHO-K1 cells (Chinese hamster ovary). The cells were cultivated in a CO2 incubator at 37° C. overnight, seeded into a 384-well plate, and stood at room temperature for 2 hours. Each compound dissolved in DMSO was added thereto, and changes in luminescence were measured by FDSS/μCELL drug discovery screening support system (Hamamatsu Photonics K.K.). As for antagonist activity, inhibitory activity of each compound was calculated by setting the luminescence level of wells to which 10 μmol/L endogenous ligand was added as 100%.

human 5-HT7 receptor [4] = molecular target: T2, human 5-HT7 receptor (Homo sapiens (Human), UniProt P34969); experiment: Test 1: binding activity for human 5-HT7 receptor ([3H]SB-269970, CHO cell membrane fraction); details: [3H]SB-269970, room temperature 60 minutes
T2 sequence (P34969 whole entry): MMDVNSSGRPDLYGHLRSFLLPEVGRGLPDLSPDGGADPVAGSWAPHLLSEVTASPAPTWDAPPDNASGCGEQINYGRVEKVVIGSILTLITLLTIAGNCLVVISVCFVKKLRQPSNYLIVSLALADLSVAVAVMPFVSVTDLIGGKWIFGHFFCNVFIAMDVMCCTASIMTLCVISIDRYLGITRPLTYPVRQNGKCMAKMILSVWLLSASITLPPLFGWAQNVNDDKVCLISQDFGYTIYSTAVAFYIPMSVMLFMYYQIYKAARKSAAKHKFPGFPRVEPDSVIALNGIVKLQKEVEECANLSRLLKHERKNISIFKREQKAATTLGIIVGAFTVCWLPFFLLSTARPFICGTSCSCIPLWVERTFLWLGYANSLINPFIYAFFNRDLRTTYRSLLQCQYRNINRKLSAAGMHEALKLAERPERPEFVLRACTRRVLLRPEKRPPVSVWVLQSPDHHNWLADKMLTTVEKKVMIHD
Protocol: as §1

human D2 receptor = human D2 receptor (Homo sapiens (Human), UniProt P14416); experiment: Test 1: binding activity for human D2 receptor ([3H]Spiperone, CHO cell membrane fraction); details: for Ki: [3H]Spiperone, room temperature 60 minutes; for D2 Ki/5-HT2A Ki / D2 Ki/5-HT7 Ki: selectivity ratio
Chain of human D2 receptor (P14416 whole entry): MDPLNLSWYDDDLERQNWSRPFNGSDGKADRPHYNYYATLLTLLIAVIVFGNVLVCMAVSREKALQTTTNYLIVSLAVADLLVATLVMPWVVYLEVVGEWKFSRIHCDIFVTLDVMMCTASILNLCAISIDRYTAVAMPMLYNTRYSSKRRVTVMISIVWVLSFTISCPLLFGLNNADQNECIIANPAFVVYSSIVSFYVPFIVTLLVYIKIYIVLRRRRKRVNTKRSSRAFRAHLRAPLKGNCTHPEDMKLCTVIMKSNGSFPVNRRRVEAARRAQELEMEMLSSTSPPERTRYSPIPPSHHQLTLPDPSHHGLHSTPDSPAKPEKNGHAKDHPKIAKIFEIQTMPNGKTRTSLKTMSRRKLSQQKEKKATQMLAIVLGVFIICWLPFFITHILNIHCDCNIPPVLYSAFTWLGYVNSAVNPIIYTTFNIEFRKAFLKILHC
Protocol: as §1

[5] = Test 3-1: metabolic stability test in human hepatic microsome; format: in vitro ADME; details: microsome 0.1 mg/mL, test compound 0.1 μmol/L, 37° C., 30 minutes
How it was run: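 Test compound at 0.1 μmol/L incubated 30 min at 37° C with human liver microsomes 0.1 mg/mL and NADPH 3.2 mmol/L in 25 mmol/L phosphate buffer, pH 7.4. Residual compound measured by LC-MS; stability (mL/min/mg protein) = −LN(residual ratio)/30/0.1.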

human 5-HT7 receptor [6] = molecular target: T2, human 5-HT7 receptor; experiment: Test 2: antagonist activity for human 5-HT7 receptor (aequorin luminescence, CHO-K1 cells); format: cell-based; details: Gα16
How it was run: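 Antagonism was measured by aequorin luminescence in CHO-K1 cells transiently expressing the receptor together with Gα16. Compounds in DMSO were added after the cells rested 2 h at room temperature. The 10 μmol/L endogenous-ligand response defined 100% for calculating inhibitory activity.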

[7] = Test 4: predictive test of human half life; details: calculated from rat distribution volume, serum unbound fraction and Test 3-2 stability
Protocol: Test 4: Predictive Test of Human Half Life
The present compound was intravenously administered to a rat as an aqueous solution of 0.01 mol/L hydrochloric acid. Blood was collected on 5 minutes, 15 minutes, 30 minutes, 1 hour, 2 hours, 4 hours, 6 hours, and 24 hours after the administration. Plasma was obtained from the collected blood, the drug concentration in plasma was measured by LC-MS, and the distribution volume of rat was calculated from the transition of the concentration.
The unbound fraction rate of the present compound in human or rat serum was measured by equilibrium dialysis method.
The half-life in human was calculated according to the following formula using the results of the distribution volume of rat, the unbound fraction rate in human or rat serum, and the metabolic stability in human hepatic microsome obtained in Test 3-2.

[8] = Test 3-2: metabolic stability test in human hepatic microsome; format: in vitro ADME; details: microsome 0.5 or 1.0 mg/mL, test compound 0.1 μmol/L, 30 or 60 minutes
Protocol: Test 3-2: Metabolic Stability Test in Human Hepatic Microsome
For more accurate evaluation of the metabolic stability in human hepatic microsome, the metabolic stability of the present compound in human hepatic microsome was evaluated at an appropriate concentration of human hepatic microsome as mentioned below. Human hepatic microsome was obtained from Xenontech. Human hepatic microsome, NADPH, and each test compound were mixed in 25 mmol/L phosphate buffer solution (pH 7.4) to reach the following concentrations as shown below, and the mixture was incubated at 37° C. for 60 minutes. • Human hepatic microsome: 0.5 or 1.0 mg/mL • NAPDH: 3.2 mmol/L • Test compound: 0.1 μmol/L
The residual ratio of a test compound in each sample after 30 or 60 minutes was measured by LC-MS, and the metabolic stability in human hepatic microsome was calculated from the following formula. Metabolic stability in human hepatic microsome (mL/min/mg protein)=−LN (residual ratio)/reaction time/concentration of human hepatic microsome

[9] = Test 10: hepatotoxic risk, dansyl glutathione (dGSH) trapping assay; format: in vitro ADME; details: human hepatic microsome, 37° C., 60 minutes; N.D. means below detection limit
Protocol: Test 10: Evaluation of Hepatotoxic Risk (Dansyl Glutathione (dGSH) Trapping Assay)
The present compound was metabolized in hepatic microsome, and from the resulted metabolite, reactive metabolite which reacts with dancyl glutathione (dGSH) was detected and quantified as the following method. Measurement was carried out with a screening robot (Tecan) for metabolic reaction, and with a fluorescence detection UPLC system (Waters) for metabolite-dGSH binding concentration.
The present compound was dissolved in DMSO to prepare 10 mmol/L test compound solution. 7.6 mL of potassium phosphate buffer (500 mmol/L, pH 7.4), 1.9 mL of human hepatic microsome (Xenotech, 20 mg protein/mL), and 1.27 mL of pure water were mixed to prepare a microsome solution. To 3.78 mL of the microsome solution was added 0.67 mL of pure water to prepare a microsome (dGSH(−)) solution. To 6.48 mL of the microsome solution was added 1.14 mL of the dGSH solution (20 mmol/L) to prepare a microsome (dGSH(+)) solution. […] 33 mg of tris(2-carboxyethyl)phosphine (TECP) was dissolved in 115 mL of methanol to prepare a reaction stop solution.
12 μL of the test compound solution was mixed with 388 μL of pure water, and the mixture was dispensed in 50 μL each into 6 wells of a 96-well plate. […] To the “reaction group” and “unreacted group” was added the microsome (dGSH(+)) solution, and to the “dGSH-free group” was added the microsome (dGSH(−)) solution in 50 μL each. To the “reaction group” and “dGSH-free group” was added to the cofactor solution, and to the “unreacted group” was added pure water in 50 μL each. After incubated at 37° C. for 60 minutes, the reaction stop solution was added in 450 μL each to stop the reaction. […]
Metabolite-dGSH binding concentration was measured by the following conditions, using a fluorescence detection UPLC system. […]
Fluorescence intensity was corrected with the composition of organic solvent at the time of elution because fluorescence intensity changes depending on the composition of organic solvent.

T1 sequence (P28223 whole entry): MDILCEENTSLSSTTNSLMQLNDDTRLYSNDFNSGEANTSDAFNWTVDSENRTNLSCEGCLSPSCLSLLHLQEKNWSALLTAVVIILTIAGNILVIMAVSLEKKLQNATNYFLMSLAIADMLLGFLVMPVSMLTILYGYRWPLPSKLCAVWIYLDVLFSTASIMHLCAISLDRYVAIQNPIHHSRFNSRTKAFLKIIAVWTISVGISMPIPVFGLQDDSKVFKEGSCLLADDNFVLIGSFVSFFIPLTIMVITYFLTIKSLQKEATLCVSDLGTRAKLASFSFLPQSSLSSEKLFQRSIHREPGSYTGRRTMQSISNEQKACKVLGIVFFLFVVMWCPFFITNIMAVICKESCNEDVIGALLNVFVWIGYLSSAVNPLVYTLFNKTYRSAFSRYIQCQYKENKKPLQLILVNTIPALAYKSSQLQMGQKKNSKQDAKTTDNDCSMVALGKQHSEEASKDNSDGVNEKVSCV

Structure (SMILES) | Ki (human 5-HT2A receptor [1]) | Kp uu at 2 h [2] | IC50 (hERG channel) | hERG inhibitory IC50 (nmol/L)/5-HT2A Ki (nmol/L) (hERG channel) | hERG inhibitory IC50 (nmol/L)/5-HT7 Ki (nmol/L) (hERG channel) | IC50 (human 5-HT2A receptor [3]) | Ki (human 5-HT7 receptor [4]) | Ki (human D2 receptor) | Metabolic stability in human hepatic microsome [5] | IC50 (human 5-HT7 receptor [6]) | Predicted half-life [7] | Metabolic stability in human hepatic microsome [8] | Metabolite-dGSH binding concentration [9] | D2 Ki/5-HT2A Ki (human D2 receptor) | D2 Ki/5-HT7 Ki (human D2 receptor)
CCN(CCN1CCC(c2noc3cc(F)ccc23)CC1)C(=O)C(O)COC (stereo not shown) [Example 18, N-Ethyl-N-{2-[4-(6-fluoro-1,2-benzoisoxazol-3-yl)piperidin-1-yl]ethyl}-2-hydroxy-3-methoxypropanamide] | 2.5 nM | 0.56 | 4.1 µM | 1637 | 1097 | 58 nM | 3.7 nM | 198 nM | <0.05 mL/min/mg protein | 72 nM |  |  |  |  | 
CCN(CCN1CCC(c2noc3cc(F)ccc23)CC1)S(=O)(=O)CCO [Example 51, N-Ethyl-N-{2-[4-(6-fluoro-1,2-benzoisoxazol-3-yl)piperidin-1-yl]ethyl}-2-hydroxyethane-1-sulfonamide] |  |  | 6.9 µM |  |  |  | 1.9 nM | 309 nM | <0.05 mL/min/mg protein | 62 nM | 6 h | 0.016 mL/min/mg protein |  |  | 
CCN(CCN1CCC(c2c[nH]c3ccccc23)CC1)S(=O)(=O)CCO [Example 57] |  |  |  |  |  | 56 nM | 8.7 nM | 210 nM | 0.06 mL/min/mg protein | 100 nM |  |  |  |  | 
CCN(CCN1CCC(n2ccc3cc(F)ccc32)CC1)C(=O)C(C)O (stereo not shown) [Example 50] |  |  |  |  |  | 49 nM | 13.5 nM | > 1000 nM | <0.05 mL/min/mg protein | 81 nM |  |  |  |  | 
CCN(CCN1CCC(c2noc3cc(F)ccc23)CC1)C(=O)C(O)CNC(C)=O (stereo not shown) [Example 71, 3-Acetamide-N-ethyl-N-{2-[4-(6-fluoro-1,2-benzoisoxazol-3-yl)piperidin-1-yl]ethyl}-2-hydroxypropanamide] |  |  |  | >4452 |  |  |  |  | <0.05 mL/min/mg protein |  |  |  | 0.132 µM | 99 | 36
CCN(CCN1CCC(c2noc3cc(F)ccc23)CC1)C(=O)[C@H](C)O [Example 16, (2S)—N-Ethyl-N-{2-[4-(6-fluoro-1,2-benzoisoxazol-3-yl)piperidin-1-yl]ethyl}-2-hydroxypropanamide] |  |  | 4.8 µM |  |  |  |  |  | <0.05 mL/min/mg protein |  | 3 h | 0.018 mL/min/mg protein |  |  | 
CCN(CCN1CCC(c2noc3cc(F)ccc23)CC1)C(=O)C1(O)CC1 [Example 24] |  |  | 5.5 µM | 5203 | 4988 | 7 nM |  |  | <0.05 mL/min/mg protein | 41 nM |  |  | 7.645 µM |  | 
CCN(CCN1CCC(c2noc3cc(F)ccc23)CC1)C(=O)CCO [Example 17, N-Ethyl-N-{2-[4-(6-fluoro-1,2-benzoisoxazol-3-yl)piperidin-1-yl]ethyl}-3-hydroxypropanamide] |  |  | 2.8 µM |  |  |  |  |  | <0.05 mL/min/mg protein | 66 nM | 27 h | 0.0025 mL/min/mg protein |  |  | 
CCN(CCN1CCC(c2noc3cc(F)ccc23)CC1)S(=O)(=O)C(C)CO (stereo not shown) [Example 52] | 298 nM |  |  |  |  | 946 nM | 333 nM | > 10000 nM |  | 177 nM |  |  |  | >34 | >30
CCN(CCN1CCC(c2noc3cc(F)c(C)cc23)CC1)C(=O)[C@H](C)O [Example 13] |  |  | 2.9 µM |  |  |  |  |  | 0.054 mL/min/mg protein | 81 nM |  |  | 0.214 µM |  | 
CCN(CCN1CCC(c2noc3cc(F)ccc23)CC1)C(=O)C1CNCCC1O (stereo not shown) [Example 67] |  |  | > 10 µM |  |  |  | 0.9 nM | < 100 nM | <0.05 mL/min/mg protein | 72 nM |  |  |  |  | 
CCN(CCN1CCC(c2noc3cc(F)ccc23)CC1)C(=O)C1(O)CCOCC1 [Example 11] |  |  | 10.5 µM |  |  |  | 5.2 nM | < 100 nM | <0.05 mL/min/mg protein | 67 nM |  |  |  |  | 
CCN(CCN1CCC(c2noc3cc(F)ccc23)CC1)C(=O)C(C)CO (stereo not shown) [Example 37] |  |  | > 10 µM |  |  |  | 1.1 nM | < 100 nM | <0.05 mL/min/mg protein | 66 nM |  |  |  |  | 
CCN(CCN1CCC(c2noc3cc(F)ccc23)CC1)C(=O)C1CN(C(C)=O)CCC1O (stereo not shown) [Example 74] |  |  | 6.7 µM |  |  |  | 6.8 nM | 138 nM | <0.05 mL/min/mg protein | 77 nM |  |  |  |  | 
